#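 Assay format: 96-well plates, 48-hour exposure. GI50 = concentration required for 50% inhibition of growth. The concentration for full growth arrest is given as TGI.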
# Key:
# Test in all cases: growth of human tumour cells (NCI), 48 h
# [1] = tested on: OVCAR-8 ovarian
# [2] = tested on: M14 melanoma
# [3] = tested on: MOLT-4 leukemia
# [4] = tested on: COLO 205 colon
# [5] = tested on: NCI-H23 lung
# [6] = tested on: BT-549 breast
# [7] = tested on: LOX IMVI melanoma
# [8] = tested on: NCI/ADR-RES ovarian
# [9] = tested on: ACHN renal
# [10] = tested on: DU-145 prostate
SMILES,GI50 [1],TGI [1],GI50 [2],TGI [2],GI50 [3],TGI [3],GI50 [4],TGI [4],GI50 [5],TGI [5],GI50 [6],TGI [6],GI50 [7],TGI [7],GI50 [8],TGI [8],GI50 [9],TGI [9],GI50 [10],TGI [10]
COC(=O)[C@H](Cc1cn(C)cn1)NC(=O)[C@H](C)NC(=O)Nc1cc(C(F)(F)F)cc(C(F)(F)F)c1,> 10 µM,> 10 µM,> 10 µM,> 10 µM,> 10 µM,> 10 µM,> 10 µM,> 10 µM,> 10 µM,> 10 µM,> 10 µM,> 10 µM,> 10 µM,> 10 µM,> 10 µM,> 10 µM,> 10 µM,> 10 µM,> 10 µM,> 10 µM
CCN1C(=NCCO)NS(=O)(=O)c2ccccc21,–,> 100 µM,–,> 100 µM,–,> 100 µM,–,> 100 µM,–,> 100 µM,–,> 100 µM,–,> 100 µM,–,> 100 µM,–,> 100 µM,–,> 100 µM
CC(=O)OC1=CC2(OC(C)=O)CC(C)(C)C1C1C(=O)C=CC(=O)C12 (stereo not given),–,> 100 µM,–,> 100 µM,–,> 100 µM,–,> 65.7 µM,–,> 100 µM,–,32.3 µM,–,> 56.1 µM,–,> 100 µM,–,45.9 µM,–,> 100 µM
NC1(Cc2ccc(Cl)cc2)CCN(c2ncnc3[nH]ccc23)CC1,11.1 µM,25.4 µM,8.58 µM,23.6 µM,1.91 µM,17.3 µM,3.72 µM,15.1 µM,4.55 µM,21 µM,3.45 µM,16.3 µM,4.43 µM,17.7 µM,9.97 µM,26.5 µM,5.58 µM,32.1 µM,9.37 µM,25.1 µM
O=C1c2cccnc2C(=O)c2c1c(C(=O)OCCCN1CCCCC1)c1ccccn21,0.0102 µM,1.19 µM,< 0.01 µM,0.0384 µM,0.1 µM,> 36.4 µM,< 0.0128 µM,0.0303 µM,< 0.01 µM,0.026 µM,0.108 µM,2.78 µM,< 0.01 µM,< 0.01 µM,< 0.01 µM,0.225 µM,< 0.01 µM,0.0171 µM,< 0.01 µM,1.29 µM
O=C1N(Cc2ccccc2Cl)c2ccccc2C12NN=C(c1cccc(Cl)c1)S2 (stereo not given),1.96 µM,4.41 µM,1.7 µM,3.25 µM,2.04 µM,4.64 µM,1.77 µM,3.3 µM,1.63 µM,3.67 µM,1.83 µM,3.44 µM,1.49 µM,2.92 µM,1.78 µM,4.14 µM,1.81 µM,3.43 µM,1.7 µM,3.26 µM
O=Cc1ccc(-c2ccc(-c3nc4ccccc4s3)cc2)s1,80.9 µM,> 100 µM,54.6 µM,> 100 µM,51.5 µM,> 100 µM,> 100 µM,> 100 µM,84.2 µM,> 100 µM,63.8 µM,> 100 µM,68.1 µM,> 100 µM,40.8 µM,> 100 µM,43.5 µM,> 100 µM,73 µM,> 100 µM
CC(C)(C)OC(=O)NCc1cccc(N=C=S)c1,29.6 µM,> 92.7 µM,15.3 µM,37 µM,19.7 µM,53.6 µM,15.7 µM,33.9 µM,18.5 µM,47.6 µM,19.2 µM,44.2 µM,16.7 µM,31.9 µM,26.2 µM,79.4 µM,21.1 µM,67.6 µM,22.7 µM,59.2 µM
CC1(C)O[C@@H]2C[C@H]3[C@@H]4C[C@H](F)C5=CC(=O)C=C[C@]5(C)[C@@]4(F)[C@@H](O)C[C@]3(C)[C@]2(C(=O)CO)O1,–,> 100 µM,–,> 100 µM,–,> 100 µM,–,> 100 µM,–,> 100 µM,–,> 100 µM,–,> 100 µM,–,> 100 µM,–,> 100 µM,–,> 100 µM
CCC(C)C(=O)OCC(=O)c1ccc(-c2ccccc2)cc1 (stereo not given),–,> 100 µM,–,> 100 µM,–,> 100 µM,–,> 100 µM,–,> 100 µM,–,> 100 µM,–,> 100 µM,–,> 100 µM,–,> 100 µM,–,> 100 µM
NC(=O)c1sc(-n2cnc3cc(C(F)(F)F)ccc32)cc1OCc1ccccc1Br,21.4 µM,> 25 µM,> 25 µM,> 25 µM,> 25 µM,> 25 µM,> 25 µM,> 25 µM,> 25 µM,> 25 µM,> 25 µM,> 25 µM,> 17.5 µM,> 25 µM,> 17.4 µM,> 25 µM,> 22.4 µM,> 25 µM,> 25 µM,> 25 µM
C/C(=N\NC(=S)N1CCCCCC1)c1cccc2cccnc12,–,> 100 µM,–,14 µM,–,> 100 µM,–,12.3 µM,–,15.5 µM,–,> 92.4 µM,–,27.1 µM,–,5.42 µM,–,11.6 µM,–,> 100 µM
